Here are results for three compounds from patent US20120165403A1, “METHODS OF INHIBITING THE ACTIVITY OF HSP90 AND/OR ARYL HYDROCARBON RECEPTOR” (UNIVERSITY OF ROCHESTER, priority 2004, published 2012).

The subject of assay [1] is AhR. Nature of the assay: Immunocytochemistry of AhR subcellular localization in Hepa cells. As to conditions: 1 h, EGCG 200 μM or TCDD 150 pM. It counts as cell-based, mouse. As for the experimental part:
Hepa cells were plated onto four-well chamber slides (Becton Dickinson, Bedford, Mass.) at a density of 2.0×10^4 and incubated overnight. Cells were treated with either vehicle (DMSO), TCDD (150 pM), EGCG alone (200 μM), or EGCG in the presence of TCDD (150 pM) for 1 h. Cells were fixed with 3.7% formalin at room temperature for 10 minutes, followed by a four minute incubation in anhydrous methanol at 4° C. All antibodies were filtered through a 0.45 micron filter before staining Cells were blocked for one hour in phosphate buffered saline containing 4% BSA, incubated with anti-AhR at a 1:2000 dilution for two hours at room temperature, followed by a one hour incubation with 1:1000 anti-rabbit Alexa-Fluor conjugated secondary antibody (Molecular Probes, Eugene Oreg.). Nuclei were stained with DAPI (0.5 μg/ml) (Molecular Probes) for three minutes at room temperature. Slides were mounted with 50% glycerol and coverslipped. AhR staining and nuclear staining were visualized using a Nikon Eclipse TS110 fluorescent microscope (40× magnification). Fluorescent images were captured using SPOT advanced software.

In assay [2] the test system is AhR. The assay is described as follows: AhR protein levels by western blotting in Hepa cells. The format is cell-based, mouse. Particulars: over 12 hours, EGCG 200 μM or TCDD 150 pM. On the procedure:
Hepa cells were plated onto 6-well plates at a density of 5×10^5 cells/well and incubated overnight at 37° C. […] Cells were lysed (0.2% Triton, 5 mM EDTA in PBS) and total protein quantified using the Coomassie Plus Protein Assay Reagent (Pierce, Rockford, Ill.). Protein (30 μg) was separated by SDS-PAGE (7.5% acrylamide resolving gel) and transferred to PVDF membrane (Millipore, Bedford, Mass.). Membranes were probed with antibodies recognizing CYP1A1 (Xenotech, Lenexa, Kans.), AhR (Biomol, Plymouth Meeting, Pa.) and actin (Sigma). The secondary IgG antibodies were coupled to horseradish peroxidase (Jackson Immuno Research, West Grove, Pa.). Both primary and secondary antibodies were used at a dilution of 1:5000 in TBST (50 mM Tris, 300 mM NaCl, 0.5% Tween 20, pH 7.5) containing 5% milk. Proteins were visualized by chemiluminescence (KPL, Gaithersburg, Md.).
On the technique in general: In western blotting, separated proteins are transferred to a membrane and probed.

In assay [3] the test system is hsp90. The assay is described as follows: Sucrose density gradient sedimentation of hsp90 in Hepa cytosol. It counts as biochemical, mouse. Particulars: 2 h, 200 μM EGCG or 10 nM TCDD. On the procedure:
Competitive binding of EGCG was analyzed by velocity sedimentation on sucrose gradients in a vertical tube rotor (Tsui et al., Can. J. Physiol. Pharmacol 59:927-931 (1981); Jensen et al., Toxicol. Sci. 64:41-56 (2001), which are hereby incorporated by reference in their entirety). Hepa cytosol (100 μl of 2.5 mg/ml) or BP^rCl cytosol was incubated for two hours at room temperature with either 3 nM ^3H-TCDD, 0.5 nM ^3H-TCDD, or 5 nM ^3H-BNF, in the presence of DMSO, 150-fold excess TCDF, 1 μM 3M4NF, or EGCG. […] For competitive binding assays, fractions were assayed for radioactivity with ScintiVerse (Fisher Scientific, Fair Lawn, N.J.). […] For AhR and hsp90 density analysis, protein contained within an aliquot (200 of each fraction was separated by SDS-PAGE (7.5% acrylamide resolving gel) and transferred to PVDF membranes. Membranes were probed with antibodies recognizing AhR (Biomol) or hsp90 (Stressgen, Victoria, BC Canada). A crude estimate of the sedimentation coefficient for the EGCG shifted AhR complex was calculated by the method of Martin and Ames (Martin et al., J. Biol. Chem. 236:1372-1379 (1961), which is hereby incorporated by reference in its entirety) relative to the ^14C-BSA (4.4S) standard.

For assay [4], the system named is mouse AhR. Nature of the assay: Competitive binding by velocity sedimentation on sucrose density gradients. Particulars: Hepa cytosol, 2 h, room temperature. On the procedure: Mouse hepatoma cells, Hepa1c1c7 (Hepa), and BP^rCl cells were maintained in modified Eagle's medium (Sigma) supplemented with 10% heat-inactivated fetal bovine serum, sodium pyruvate, L-glutamine, sodium bicarbonate, and Gentamicin (MEM+), at 37° C. in a humid atmosphere with 5% CO2. BP^rCl cells are a derivative of Hepa1c1c7 cells that lack ARNT protein expression and function (Probst et al., Mol. Pharmacol. 44:511-518 (1993), which is hereby incorporated by reference in its entirety). Upon reaching 90% confluency, cells were harvested and homogenized in HEDG buffer (25 mM HEPES, 1.5 mM Na2EDTA, 1 mM dithiothreitol, 10% (v/v) glycerol, pH 7.6) containing protease inhibitors (Roche Applied Science complete mini cocktail tablet, Indianapolis, Ind.). Both Hepa and BP^rC1 cytosols were prepared by centrifugation of the homogenate at 100,000 g for 45 min.
Competitive binding of EGCG was analyzed by velocity sedimentation on sucrose gradients in a vertical tube rotor (Tsui et al., Can. J. Physiol. Pharmacol 59:927-931 (1981); Jensen et al., Toxicol. Sci. 64:41-56 (2001), which are hereby incorporated by reference in their entirety). Hepa cytosol (100 μl of 2.5 mg/ml) or BP^rCl cytosol was incubated for two hours at room temperature with either 3 nM ^3H-TCDD, 0.5 nM ^3H-TCDD, or 5 nM ^3H-BNF, in the presence of DMSO, 150-fold excess TCDF, 1 μM 3M4NF, or EGCG. Cytosols were washed with charcoal-dextran (1 mg charcoal/mg protein) in HEDG, and applied to a 10-30% (w/v) sucrose gradient in Beckman Quick-Seal centrifuge tubes (Beckman, Palo Alto, Calif.). [Methyl-^14C]-BSA was used as an internal sedimentation marker. The gradients were centrifuged for 2 h at 372,000×g in a Beckman VTI-80 rotor. Fractions were collected from the top at a rate of 1 ml/min, 0.2 ml/fraction. For competitive binding assays, fractions were assayed for radioactivity with ScintiVerse (Fisher Scientific, Fair Lawn, N.J.). […] For AhR and hsp90 density analysis, protein contained within an aliquot (200 of each fraction was separated by SDS-PAGE (7.5% acrylamide resolving gel) and transferred to PVDF membranes. Membranes were probed with antibodies recognizing AhR (Biomol) or hsp90 (Stressgen, Victoria, BC Canada). A crude estimate of the sedimentation coefficient for the EGCG shifted AhR complex was calculated by the method of Martin and Ames (Martin et al., J. Biol. Chem. 236:1372-1379 (1961), which is hereby incorporated by reference in its entirety) relative to the ^14C-BSA (4.4S) standard.

`Clc1cc2c(cc1Cl)Oc1cc(Cl)c(Cl)cc1O2` [TCDD, 2,3,7,8-tetrachlorodibenzo-p-dioxin, reference compound]: the “subcellular localization of the AhR, treatment alone” value in assay [1] is “redistribution of the AhR from the cytosol to the nucleus”. Further, the “AhR protein levels, treatment alone” value in assay [2] is “decline rapidly”. In assay [3], the “effect on the sedimentation pattern of hsp90” value is “did not appear to influence this sedimentation pattern”.
On to `O=c1cc(-c2cccc([N+](=O)[O-])c2)oc2ccccc12` [3′-nitroflavone, reference compound], for which, in assay [4] (5 nM 3H-BNF), the “competition with 3H-BNF for binding to the AhR” value is “very efficiently competed with BNF binding”.
Regarding `COc1cc(-c2cc(=O)c3ccccc3o2)ccc1[N+](=O)[O-]` [3M4NF, 3′-methoxy-4′ nitroflavone, reference compound], in assay [4] (3 nM 3H-TCDD), the “competition with 3H-TCDD for specific binding to the AhR (9S peak)” value is listed as “inhibited the formation of this ^3H-TCDD peak”.
